The text below walks through data of patent publication US9334279B2, “Hepatitis C virus inhibitors” (BRISTOL-MYERS SQUIBB COMPANY, priority 2012, dated 2016).

Like-named read-outs stand apart in the source and are kept apart here.

The EC50 is the concentration at which the effect is half-maximal.

The conditions of data set [1]: rcm bond, 15-membered ring, Hoveyda-Grubbs II.
A further data set deals with HCV GT1a(H77) replicon. The experiment in a line: HCV replicon luciferase reporter assay, genotype 1a. The data set is classed as cell-based, HCV genotype 1a. Conditions: Hepatitis C virus, 72 h, HUH-7 cells, Renilla luciferase, 3 days incubation. A digest of the protocol: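 Huh-7 cells stably carried a GT1a(H77) Renilla luciferase replicon with NS3 P1496L and NS5A S2204I adaptive mutations. Luminescence was read after 2 h with 7.5 μM EnduRen, and EC50 came from a four-parameter logistic fit; CC50 came from multiplexed Cell Titer-Blue (8 h).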

A further data set has as its system HCV GT1b(Con1) replicon. The experiment in a line: HCV replicon luciferase reporter assay, genotype 1b. It is filed as cell-based, HCV genotype 1b. Conditions: Hepatitis C virus, 72 h, HUH-7 cells, Renilla luciferase, 3 days incubation. A digest of the protocol:
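HUH-7 cells stably carrying a Con1 GT1b replicon with Renilla luciferase and Ser1179Ile adaptive mutation; 3.0×10^3 cells/well, DMEM 4% FCS, 0.5% DMSO, twenty-point 3-fold titration, 3 days 37 °C. Luminescence 2 h after 7.5 μM EnduRen; EC50 by four-parameter logistic fit. CC50 from multiplexed Cell Titer-Blue fluorescence (8 h).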
(A replicon is a self-replicating genome or part of one, used to study replication in cells.)

As to `CC1CC/C=C\[C@@H]2C[C@@]2(C(=O)NS(=O)(=O)C2(C)CC2)NC(=O)[C@@H]2C[C@@H](O)CN2C(=O)[C@@H](NC(=O)OC(C)(C)C)[C@H](C)C1` (stereo partly drawn), the ring closure, isolated yield in data set [1] (from C=CCCC(C)C[C@@H](C)[C@H](NC(=O)OC(C)(C)C)C(=O)N1C[C@H](O)C[C@H]1C(=O)N[C@]1(C(=O)NS(=O)(=O)C2(C)CC2)C[C@H]1C=C, 1,2-dichloroethane, 8.8 mM, 80.0 °C, 2.0 h) came out at 70%.
`CC[C@@H]1CC(C)CC/C=C\[C@@H]2C[C@@]2(C(=O)NS(=O)(=O)C2CC2)NC(=O)[C@@H]2C[C@@H](O)CN2C(=O)[C@H]1NC(=O)OC(C)(C)C` (stereo partly drawn) displayed a ring closure, isolated yield in data set [1] (from C=CCCC(C)C[C@@H](CC)[C@H](NC(=O)OC(C)(C)C)C(=O)N1C[C@@H](O)CC1C(=O)N[C@]1(C(=O)NS(=O)(=O)C2CC2)C[C@H]1C=C, dichloroethane, 26.6 mM, 95.0 °C, 16.0 h) of 47%.
With `CC(C)Oc1ccc(-c2cc(O[C@@H]3C[C@H]4C(=O)N[C@]5(C(=O)NS(=O)(=O)C6(C)CC6)C[C@H]5/C=C\CC[C@@H](C)C[C@@H](C)[C@H](NC(=O)OC5(C(F)(F)F)CCCOC5)C(=O)N4C3)cc(-c3cscn3)n2)cc1` (stereo partly drawn) [Compound 1052, 3-(trifluoromethyl)tetrahydro-2H-pyran-3-yl ((2R,6S,7R,9R,13aS,14aR,16aS,Z)-2-((2-(4-isopropoxyphenyl)-6-(thiazol-4-yl)pyridin-4-yl)oxy)-7,9-dimethyl-14a-(((1-methylcyclopropyl)sulfonyl)carbamoyl)-5,16-dioxo-1,2,3,5,6,7,8,9,10,11,13a,14,14a,15,16,16a-hexadecahydrocyclopropa[e]pyrrolo[1,2-a][1,4]diazacyclopentadecin-6-yl)carbamate], the EC50 lay in the range of 0.1 to 0.5 nM in the data set with HCV GT1a(H77) replicon (read-out: LE_1a (EC50, range)) and 0.51 to 1 nM in the data set with HCV GT1b(Con1) replicon (read-out: LE_1b (EC50, range)).
For `CC[C@@H]1C[C@H](C)CC/C=C\[C@@H]2C[C@@]2(C(=O)NS(=O)(=O)C2CC2)NC(=O)[C@@H]2C[C@@H](Oc3cc(-c4ccc(C(F)(F)F)cc4)nc(-c4nccs4)c3)CN2C(=O)[C@H]1NC(=O)OC(C)(C)C(F)(F)F` [Compound 1053, 1,1,1-trifluoro-2-methylpropan-2-yl ((2R,6S,7R,9R,13aS,14aR,16aS,Z)-14a-((cyclopropylsulfonyl)carbamoyl)-7-ethyl-9-methyl-5,16-dioxo-2-((2-(thiazol-2-yl)-6-(4-(trifluoromethyl)phenyl)pyridin-4-yl)oxy)-1,2,3,5,6,7,8,9,10,11,13a,14,14a,15,16,16a-hexadecahydrocyclopropa[e]pyrrolo[1,2-a][1,4]diazacyclopentadecin-6-yl)carbamate], in that order: 1.01 to 5 nM and 1.01 to 5 nM.
`CC[C@@H]1C[C@H](C)CC/C=C\[C@@H]2C[C@@]2(C(=O)NS(=O)(=O)C2CC2)NC(=O)[C@@H]2C[C@@H](Oc3cc(-c4ccc(C(F)(F)F)cc4)nc(-c4nccs4)c3)CN2C(=O)[C@H]1NC(=O)OC1(C(F)(F)F)CCCOC1` (stereo partly drawn) [Compound 1054, 3-(trifluoromethyl)tetrahydro-2H-pyran-3-yl ((2R,6S,7R,9R,13aS,14aR,16aS,Z)-14a-((cyclopropylsulfonyl)carbamoyl)-7-ethyl-9-methyl-5,16-dioxo-2-((2-(thiazol-2-yl)-6-(4-(trifluoromethyl)phenyl)pyridin-4-yl)oxy)-1,2,3,5,6,7,8,9,10,11,13a,14,14a,15,16,16a-hexadecahydrocyclopropa[e]pyrrolo[1,2-a][1,4]diazacyclopentadecin-6-yl)carbamate]: the 50% effective concentration (EC50) with HCV GT1a(H77) replicon (read-out: LE_1a (EC50, range)) lay within 1.01 to 5 nM; in the data set with HCV GT1b(Con1) replicon (read-out: LE_1b (EC50, range)) it was 0.51 to 1 nM.
For `CC[C@@H]1C[C@H](C)CC/C=C\[C@@H]2C[C@@]2(C(=O)NS(=O)(=O)C2(C)CC2)NC(=O)[C@@H]2C[C@@H](Oc3ccnc(-c4nc(C)cs4)c3)CN2C(=O)[C@H]1NC(=O)OC(C)(C)C(F)(F)F` [Compound 1055, 1,1,1-trifluoro-2-methylpropan-2-yl ((2R,6S,7R,9R,13aS,14aR,16aS,Z)-7-ethyl-9-methyl-14a-(((1-methylcyclopropyl)sulfonyl)carbamoyl)-2-((2-(4-methylthiazol-2-yl)pyridin-4-yl)oxy)-5,16-dioxo-1,2,3,5,6,7,8,9,10,11,13a,14,14a,15,16,16a-hexadecahydrocyclopropa[e]pyrrolo[1,2-a][1,4]diazacyclopentadecin-6-yl)carbamate], in that order: 1.01 to 5 nM and 1.01 to 5 nM.
`CC[C@@H]1C[C@H](C)CC/C=C\[C@@H]2C[C@@]2(C(=O)NS(=O)(=O)C2CC2)NC(=O)[C@@H]2C[C@@H](Oc3cc(OC)nc(-c4nccs4)c3)CN2C(=O)[C@H]1NC(=O)OC(C)(C)C(F)(F)F` [Compound 1056, 1,1,1-trifluoro-2-methylpropan-2-yl ((2R,6S,7R,9R,13aS,14aR,16aS,Z)-14a-((cyclopropylsulfonyl)carbamoyl)-7-ethyl-2-((2-methoxy-6-(thiazol-2-yl)pyridin-4-yl)oxy)-9-methyl-5,16-dioxo-1,2,3,5,6,7,8,9,10,11,13a,14,14a,15,16,16a-hexadecahydrocyclopropa[e]pyrrolo[1,2-a][1,4]diazacyclopentadecin-6-yl)carbamate]: the EC50 in the data set with HCV GT1a(H77) replicon (read-out: LE_1a (EC50, range)) lay within 1.01 to 5 nM; in the data set on HCV GT1b(Con1) replicon (read-out: LE_1b (EC50, range)) it was 1.01 to 5 nM.
Regarding `CC[C@@H]1C[C@H](C)CC/C=C\[C@@H]2C[C@@]2(C(=O)NS(=O)(=O)C2CC2)NC(=O)[C@@H]2C[C@@H](Oc3cc(-c4ccc(OC(C)C)cc4)nc(-c4nccs4)c3)CN2C(=O)[C@H]1NC(=O)O[C@@H]1C[C@@H]2C[C@@H]2C1` [Compound 1057, (1R,3r,5S)-bicyclo[3.1.0]hexan-3-yl ((2R,6S,7R,9R,13aS,14aR,16aS,Z)-14a-((cyclopropylsulfonyl)carbamoyl)-7-ethyl-2-((2-(4-isopropoxyphenyl)-6-(thiazol-2-yl)pyridin-4-yl)oxy)-9-methyl-5,16-dioxo-1,2,3,5,6,7,8,9,10,11,13a,14,14a,15,16,16a-hexadecahydrocyclopropa[e]pyrrolo[1,2-a][1,4]diazacyclopentadecin-6-yl)carbamate], the half-maximal effective concentration (EC50) in the data set on HCV GT1a(H77) replicon (read-out: LE_1a (EC50, range)) fell in the range of 1.01 to 5 nM; in the data set on HCV GT1b(Con1) replicon (read-out: LE_1b (EC50, range)), 1.01 to 5 nM.
On to `Cc1ccc(-c2cc(O[C@@H]3C[C@H]4C(=O)N[C@]5(C(=O)NS(=O)(=O)C6(C)CC6)C[C@H]5/C=C\CC[C@@H](C)C[C@@H](C)[C@H](NC(=O)OC(C)(C)C(F)(F)F)C(=O)N4C3)cc(-c3nccs3)n2)cc1` [Compound 1059, 1,1,1-trifluoro-2-methylpropan-2-yl ((2R,6S,7R,9R,13aS,14aR,16aS,Z)-7,9-dimethyl-14a-(((1-methylcyclopropyl)sulfonyl)carbamoyl)-5,16-dioxo-2-((2-(thiazol-2-yl)-6-(p-tolyl)pyridin-4-yl)oxy)-1,2,3,5,6,7,8,9,10,11,13a,14,14a,15,16,16a-hexadecahydrocyclopropa[e]pyrrolo[1,2-a][1,4]diazacyclopentadecin-6-yl)carbamate], for which the concentration for a half-maximal effect (EC50) with HCV GT1a(H77) replicon (read-out: LE_1a (EC50, range)) was in the range of 0.51 to 1 nM; in the data set on HCV GT1b(Con1) replicon (read-out: LE_1b (EC50, range)), 0.51 to 1 nM.
For the molecule `C[C@@H]1CC/C=C\[C@@H]2C[C@@]2(C(=O)NS(=O)(=O)C2(C)CC2)NC(=O)[C@@H]2C[C@@H](Oc3cc(-c4ccccc4)nc(-c4nccs4)c3)CN2C(=O)[C@@H](NC(=O)OC(C)(C)C(F)(F)F)[C@H](C)C1` [Compound 1060, 1,1,1-trifluoro-2-methylpropan-2-yl ((2R,6S,7R,9R,13aS,14aR,16aS,Z)-7,9-dimethyl-14a-(((1-methylcyclopropyl)sulfonyl)carbamoyl)-5,16-dioxo-2-((2-phenyl-6-(thiazol-2-yl)pyridin-4-yl)oxy)-1,2,3,5,6,7,8,9,10,11,13a,14,14a,15,16,16a-hexadecahydrocyclopropa[e]pyrrolo[1,2-a][1,4]diazacyclopentadecin-6-yl)carbamate], the EC50 in the data set with HCV GT1a(H77) replicon (read-out: LE_1a (EC50, range)) was 0.51 to 1 nM; with HCV GT1b(Con1) replicon (read-out: LE_1b (EC50, range)), 0.1 to 0.5 nM.
Turning to `CC[C@@H]1C[C@H](C)CC/C=C\[C@@H]2C[C@@]2(C(=O)NS(=O)(=O)C2CC2)NC(=O)[C@@H]2C[C@@H](Oc3ccc(-c4nccs4)cn3)CN2C(=O)[C@H]1NC(=O)OC(C)(C)C(F)(F)F` [Compound 1063, 1,1,1-trifluoro-2-methylpropan-2-yl ((2R,6S,7R,9R,13aS,14aR,16aS,Z)-14a-((cyclopropylsulfonyl)carbamoyl)-7-ethyl-9-methyl-5,16-dioxo-2-((5-(thiazol-2-yl)pyridin-2-yl)oxy)-1,2,3,5,6,7,8,9,10,11,13a,14,14a,15,16,16a-hexadecahydrocyclopropa[e]pyrrolo[1,2-a][1,4]diazacyclopentadecin-6-yl)carbamate], the EC50 in the data set on HCV GT1a(H77) replicon (read-out: LE_1a (EC50)) was 16.7 nM; with HCV GT1a(H77) replicon (read-out: LE_1a (EC50, range)), 5.01 to 35 nM; in the data set on HCV GT1b(Con1) replicon (read-out: LE_1b (EC50)), 3.51 nM; in the data set on HCV GT1b(Con1) replicon (read-out: LE_1b (EC50, range)), 1.01 to 5 nM.
Regarding `C[C@@H]1CC/C=C\[C@@H]2C[C@@]2(C(=O)NS(=O)(=O)C2(C)CC2)NC(=O)[C@@H]2C[C@@H](Oc3ccc(-c4nccs4)cn3)CN2C(=O)[C@@H](NC(=O)OC(C)(C)C(F)(F)F)[C@H](C)C1` [Compound 1064, 1,1,1-trifluoro-2-methylpropan-2-yl ((2R,6S,7R,9R,13aS,14aR,16aS,Z)-7,9-dimethyl-14a-(((1-methylcyclopropyl)sulfonyl)carbamoyl)-5,16-dioxo-2-((5-(thiazol-2-yl)pyridin-2-yl)oxy)-1,2,3,5,6,7,8,9,10,11,13a,14,14a,15,16,16a-hexadecahydrocyclopropa[e]pyrrolo[1,2-a][1,4]diazacyclopentadecin-6-yl)carbamate], the concentration for a half-maximal effect (EC50) with HCV GT1a(H77) replicon (read-out: LE_1a (EC50, range)) was in the range of 1.01 to 5 nM; in the data set with HCV GT1b(Con1) replicon (read-out: LE_1b (EC50, range)) it was 0.1 to 0.5 nM.
